ChEMBL document CHEMBL5380860, “Design, Synthesis, and Antitumor Activity of Potent and Selective EGFR L858R/T790M Inhibitors and Identification of a Combination Therapy to Overcome Acquired Resistance in Models of Non-small-cell Lung Cancer” (J Med Chem, 2023)

Key:
[1] = tested on: A549; test: Induction of apoptosis in human A549 cells assessed as early apoptotic cells at 1 uM incubated for 48 hrs by AnnexinV-FITC/PI staining based flow cytometry (reference value: 3.89%); type: toxicity, cell-based; conditions: a549, 48 h
[2] = tested on: HCC827; test: Induction of apoptosis in human HCC827 cells assessed as early apoptotic cells at 0.1 uM incubated for 48 hrs by AnnexinV-FITC/PI staining based flow cytometry (reference value: 0.24%); type: functional
[3] = tested on: NCI-H1975; test: Induction of apoptosis in human NCI-H1975 cells assessed as early apoptotic cells at 0.1 uM incubated for 48 hrs by AnnexinV-FITC/PI staining based flow cytometry (reference value: 0.61%); type: functional
[4] = tested on: A-431; test: Induction of cell cycle arrest in human A-431 cells assessed as accumulation of cells at S phase at 1 uM incubated for 48 hrs by PI staining based flow cytometry (reference value: 30.5%); type: toxicity; conditions: a-431, 48 h
[5] = tested on: A-431; test: Induction of apoptosis in human A-431 cells assessed as late apoptotic cells at 1 uM incubated for 48 hrs by AnnexinV-FITC/PI staining based flow cytometry (reference value: 1.86%); type: toxicity, cell-based; conditions: a-431, 48 h
[6] = tested on: A-431; test: Induction of cell cycle arrest in human A-431 cells assessed as accumulation of cells at G1 phase at 1 uM incubated for 48 hrs by PI staining based flow cytometry (reference value: 46.9%); type: toxicity; conditions: a-431, 48 h
[7] = tested on: A-431; test: Induction of apoptosis in human A-431 cells assessed as early apoptotic cells at 10 uM incubated for 48 hrs by AnnexinV-FITC/PI staining based flow cytometry (reference value: 1.37%); type: toxicity, cell-based; conditions: a-431, 48 h
[8] = tested on: A-431; test: Induction of cell cycle arrest in human A-431 cells assessed as accumulation of cells at S phase at 0.1 uM incubated for 48 hrs by PI staining based flow cytometry (reference value: 30.5%); type: toxicity; conditions: a-431, 48 h
[9] = tested on: A-431; test: Induction of apoptosis in human A-431 cells assessed as late apoptotic cells at 10 uM incubated for 48 hrs by AnnexinV-FITC/PI staining based flow cytometry (reference value: 1.86%); type: toxicity, cell-based; conditions: a-431, 48 h
[10] = tested on: A549; test: Induction of cell cycle arrest in human A549 cells assessed as accumulation of cells at S phase at 10 uM incubated for 48 hrs by PI staining based flow cytometry (reference value: 29.4%); type: toxicity; conditions: a549, 48 h
[11] = tested on: NCI-H1975; test: Induction of cell cycle arrest in human NCI-H1975 cells assessed as accumulation of cells at S phase at 1 uM incubated for 48 hrs by PI staining based flow cytometry (reference value: 29.8%); type: functional
[12] = tested on: A-431; test: Induction of cell cycle arrest in human A-431 cells assessed as accumulation of cells at G2 phase at 1 uM incubated for 48 hrs by PI staining based flow cytometry (reference value: 21.7%); type: toxicity; conditions: a-431, 48 h
[13] = tested on: NCI-H1975; test: Induction of cell cycle arrest in human NCI-H1975 cells assessed as accumulation of cells at G2 phase at 1 uM incubated for 48 hrs by PI staining based flow cytometry (reference value: 19.3%); type: functional
[14] = tested on: NCI-H1975; test: Induction of cell cycle arrest in human NCI-H1975 cells assessed as accumulation of cells at G1 phase at 1 uM incubated for 48 hrs by PI staining based flow cytometry (reference value: 50.1%); type: functional
[15] = tested on: A549; test: Induction of apoptosis in human A549 cells assessed as late apoptotic cells at 10 uM incubated for 48 hrs by AnnexinV-FITC/PI staining based flow cytometry (reference value: 0.51%); type: toxicity, cell-based; conditions: a549, 48 h
[16] = tested on: HCC827; test: Induction of apoptosis in human HCC827 cells assessed as early apoptotic cells at 1 uM incubated for 48 hrs by AnnexinV-FITC/PI staining based flow cytometry (reference value: 0.24%); type: functional
[17] = tested on: A549; test: Induction of cell cycle arrest in human A549 cells assessed as accumulation of cells at G1 phase at 0.1 uM incubated for 48 hrs by PI staining based flow cytometry (reference value: 52.4%); type: toxicity; conditions: a549, 48 h
[18] = tested on: A-431; test: Induction of cell cycle arrest in human A-431 cells assessed as accumulation of cells at S phase at 10 uM incubated for 48 hrs by PI staining based flow cytometry (reference value: 30.5%); type: toxicity; conditions: a-431, 48 h
[19] = tested on: A549; test: Induction of apoptosis in human A549 cells assessed as early apoptotic cells at 10 uM incubated for 48 hrs by AnnexinV-FITC/PI staining based flow cytometry (reference value: 3.89%); type: toxicity, cell-based; conditions: a549, 48 h
[20] = tested on: NCI-H1975; test: Induction of apoptosis in human NCI-H1975 cells assessed as late apoptotic cells at 0.1 uM incubated for 48 hrs by AnnexinV-FITC/PI staining based flow cytometry (reference value: 0.79%); type: functional
[21] = tested on: HCC827; test: Induction of cell cycle arrest in human HCC827 cells assessed as accumulation of cells at S phase at 0.1 uM incubated for 48 hrs by PI staining based flow cytometry (reference value: 15.2%); type: functional
[22] = tested on: HCC827; test: Induction of cell cycle arrest in human HCC827 cells assessed as accumulation of cells at G1 phase at 10 uM incubated for 48 hrs by PI staining based flow cytometry (reference value: 65.2%); type: functional
[23] = tested on: HCC827; test: Induction of cell cycle arrest in human HCC827 cells assessed as accumulation of cells at G1 phase at 0.1 uM incubated for 48 hrs by PI staining based flow cytometry (reference value: 65.2%); type: functional
[24] = tested on: A-431; test: Induction of cell cycle arrest in human A-431 cells assessed as accumulation of cells at G2 phase at 10 uM incubated for 48 hrs by PI staining based flow cytometry (reference value: 21.7%); type: toxicity; conditions: a-431, 48 h
[25] = tested on: NCI-H1975; test: Induction of apoptosis in human NCI-H1975 cells assessed as late apoptotic cells at 1 uM incubated for 48 hrs by AnnexinV-FITC/PI staining based flow cytometry (reference value: 0.79%); type: functional
[26] = tested on: NCI-H1975; test: Induction of cell cycle arrest in human NCI-H1975 cells assessed as accumulation of cells at S phase at 10 uM incubated for 48 hrs by PI staining based flow cytometry (reference value: 29.8%); type: functional
[27] = tested on: NCI-H1975; test: Induction of cell cycle arrest in human NCI-H1975 cells assessed as accumulation of cells at S phase at 0.1 uM incubated for 48 hrs by PI staining based flow cytometry (reference value: 29.8%); type: functional
[28] = tested on: HCC827; test: Induction of cell cycle arrest in human HCC827 cells assessed as accumulation of cells at G2 phase at 0.1 uM incubated for 48 hrs by PI staining based flow cytometry (reference value: 25.9%); type: functional
[29] = tested on: NCI-H1975; test: Induction of cell cycle arrest in human NCI-H1975 cells assessed as accumulation of cells at G2 phase at 10 uM incubated for 48 hrs by PI staining based flow cytometry (reference value: 19.3%); type: functional
[30] = tested on: A-431; test: Induction of cell cycle arrest in human A-431 cells assessed as accumulation of cells at G1 phase at 0.1 uM incubated for 48 hrs by PI staining based flow cytometry (reference value: 46.9%); type: toxicity; conditions: a-431, 48 h
[31] = tested on: A549; test: Induction of cell cycle arrest in human A549 cells assessed as accumulation of cells at G2 phase at 1 uM incubated for 48 hrs by PI staining based flow cytometry (reference value: 18.1%); type: toxicity; conditions: a549, 48 h
[32] = tested on: NCI-H1975; test: Induction of apoptosis in human NCI-H1975 cells assessed as early apoptotic cells at 1 uM incubated for 48 hrs by AnnexinV-FITC/PI staining based flow cytometry (reference value: 0.61%); type: functional

`C=CC(=O)Nc1cccc(Nc2nc(Nc3ccc(N4CCN(C)CC4)cc3)nc3ccc(F)cc23)c1` showed an Activity [1] of 6.44%, an Activity [2] of 10.1% and an Activity [3] of 7.05%. It also gave an Activity [4] of 27.6%, an Activity [5] of 2.9% and an Activity [6] of 54.1%. For the same molecule, the Activity [7] was 14.5%, the Activity [8] was 30.1% and the Activity [9] was 3.43%. For the same molecule, the Activity [10] was 22.8%, the Activity [11] was 16.4% and the Activity [12] was 18.6%. For the same molecule, the Activity [13] was 11.8%, the Activity [14] was 72.2% and the Activity [15] was 0.2%. It also gave an Activity [16] of 22.7%, an Activity [17] of 57.2% and an Activity [18] of 20.4%. It also gave an Activity [19] of 14.6%, an Activity [20] of 8.57% and an Activity [21] of 12%. For the same molecule, the Activity [22] was 81.1%, the Activity [23] was 74% and the Activity [24] was 10.7%. The Activity [25] was 11.6%, the Activity [26] was 11.3% and the Activity [27] was 17.5%. For the same molecule, the Activity [28] was 13.5%, the Activity [29] was 7.05% and the Activity [30] was 52.6%. It also gave an Activity [31] of 12% and an Activity [32] of 23%.
`C=CC(=O)Nc1cc(Nc2nccc(-c3cn(C)c4ccccc34)n2)c(OC)cc1N(C)CCN(C)C` [OSIMERTINIB] was tested, and the Activity [1] was 8%, the Activity [2] was 15.2% and the Activity [3] was 7.15%. For the same molecule, the Activity [4] was 28.1%, the Activity [5] was 6.74% and the Activity [6] was 52.5%. The Activity [7] was 28.1%, the Activity [8] was 30.6% and the Activity [9] was 19.4%. The Activity [10] was 13.2%, the Activity [11] was 18.9% and the Activity [12] was 19.6%. For the same molecule, the Activity [13] was 11.1%, the Activity [14] was 71.5% and the Activity [15] was 0.47%. The Activity [16] was 17.2%, the Activity [17] was 53.4% and the Activity [18] was 23.9%. The Activity [19] was 18.6%, the Activity [20] was 9.27% and the Activity [21] was 11.8%. The Activity [22] was 79.5%, the Activity [23] was 72.9% and the Activity [24] was 13.1%. For the same molecule, the Activity [25] was 21.4%, the Activity [26] was 11.5% and the Activity [27] was 16.2%. It also gave an Activity [28] of 13.6%, an Activity [29] of 10.4% and an Activity [30] of 49.8%. It also gave an Activity [31] of 14% and an Activity [32] of 17.5%.
